Laboratory results reported in US10280163B2 (BeiGene, Ltd., priority 2015, dated 2019).
Where two headings read alike, the source gives them in different places.

Columns and labels:
Recombinant IDO1 = target: T1, Recombinant IDO1 (Homo sapiens, UniProt P14902); assay: IDO1 enzymatic assay; format: biochemical
T1 construct: His tag (N); made in house; host or cells: E. coli
How it was run: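 N-terminally His-tagged enzyme from E. coli (50 nM) was incubated with compound, 1.3 mM D-tryptophan, 5 mM ascorbate, 6.25 μM methylene blue and 0.4 mg/mL catalase in 50 mM potassium phosphate pH 7.5, 0.1% BSA for 1.5 h at 24° C. N′-formylkynurenine formation was followed at 321 nm for 1 h; IC50 from rate slopes.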

[1] = target: T2, cellular IDO1 in HeLa cells (Homo sapiens, UniProt P14902); assay: HeLa cell-based IDO1 Kyn (kynurenine) production assay; settings: IFN-γ 100 ng/mL, 48 hours
T2 construct: endogenous in cells; host or cells: HeLa cells (American Type Tissue Culture Collection), induced with human recombinant IFN-γ
How it was run: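 IFN-γ-induced HeLa cells (100 ng/mL) in phenol red-free DMEM with 0.4 mM L-Trp, compounds added together with IFN-γ, 48 h at 37 °C. Supernatant Kyn read at 480 nm after TCA precipitation and 4-(dimethylamino)benzaldehyde reaction. IC50 from four-parameter logistic fit.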

Recombinant TDO = target: T3, Recombinant TDO (Homo sapiens, UniProt P48775); assay: TDO enzymatic assay; format: biochemical
T3 construct: His tag (C); made in house; host or cells: E. coli
Protocol: Recombinant TDO was overexpressed and purified from E. coli cells with a C-terminal His tag. TDO enzymatic assay was performed using the same methodology as IDO1 enzymatic assay except that 100 nM TDO and 0.5 mM L-tryptophan (Km concentration) were used in the TDO assay.

[2] = Table 1, 5-substituted imidazo[1,5-a]pyridines, 50 nM IDO1, 1.3 mM D-tryptophan, read-out: Enzyme IC50 (nM) IDO1
[3] = Table 1, 5-substituted imidazo[1,5-a]pyridines
[4] = Table 1, 5-substituted imidazo[1,5-a]pyridines, 100 nM TDO, 0.5 mM L-tryptophan, read-out: Enzyme IC50 (nM) TDO
[5] = Table 2, 8-substituted imidazo[1,5-a]pyridines, 50 nM IDO1, 1.3 mM D-tryptophan, read-out: Enzyme IC50 (nM) IDO1
[6] = Table 2, 8-substituted imidazo[1,5-a]pyridines
[7] = Table 2, 8-substituted imidazo[1,5-a]pyridines, 100 nM TDO, 0.5 mM L-tryptophan, read-out: Enzyme IC50 (nM) TDO

T2 sequence (P14902 whole entry): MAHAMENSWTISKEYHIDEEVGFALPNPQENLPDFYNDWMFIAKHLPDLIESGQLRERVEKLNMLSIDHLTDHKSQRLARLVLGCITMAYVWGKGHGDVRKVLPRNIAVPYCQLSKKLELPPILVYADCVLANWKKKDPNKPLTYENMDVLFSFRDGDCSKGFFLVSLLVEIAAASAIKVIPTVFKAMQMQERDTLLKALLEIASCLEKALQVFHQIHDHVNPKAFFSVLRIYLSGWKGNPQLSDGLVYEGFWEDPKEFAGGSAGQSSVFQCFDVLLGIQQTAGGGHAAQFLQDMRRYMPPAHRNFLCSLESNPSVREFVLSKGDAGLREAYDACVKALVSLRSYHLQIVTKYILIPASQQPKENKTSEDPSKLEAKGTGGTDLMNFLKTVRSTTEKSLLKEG
T1 sequence (P14902 whole entry): as above
T3 sequence (P48775 whole entry): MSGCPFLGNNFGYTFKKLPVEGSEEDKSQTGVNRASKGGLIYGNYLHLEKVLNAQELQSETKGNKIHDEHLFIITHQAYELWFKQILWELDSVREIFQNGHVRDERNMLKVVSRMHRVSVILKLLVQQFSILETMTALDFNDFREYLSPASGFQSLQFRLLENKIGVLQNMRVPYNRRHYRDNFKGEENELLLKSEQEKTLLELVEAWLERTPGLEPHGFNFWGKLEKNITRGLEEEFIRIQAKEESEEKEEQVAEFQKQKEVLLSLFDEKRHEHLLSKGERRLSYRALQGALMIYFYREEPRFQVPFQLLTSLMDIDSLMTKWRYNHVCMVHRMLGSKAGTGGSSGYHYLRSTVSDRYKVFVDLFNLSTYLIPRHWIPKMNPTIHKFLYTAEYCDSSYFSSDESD

Row | SMILES | IC50 (Recombinant IDO1; [2]) [nM] | EC50 [1, 3] [nM] | IC50 (Recombinant TDO; [4]) [nM] | IC50 (Recombinant IDO1; selectivity examples, read-out: enzymatic IC50 value to IDO1) [nM] | IC50 (Recombinant TDO; selectivity examples, read-out: enzymatic IC50 value to TDO) [nM] | IC50 (Recombinant IDO1; [5]) [nM] | EC50 [1, 6] [nM] | IC50 (Recombinant TDO; [7]) [nM]
1 | COc1cc(C(O)C2CCCCC2)n2cncc2c1Cl (stereo not drawn) [Example A153, (8-chloro-7-methoxyimidazo[1,5-a]pyridin-5-yl)(cyclohexyl)methanol] | 500 | 6760 | 1800 | – | – | – | – | –
2 | OC(c1cc(Br)cc2cncn12)C1CCCCC1 (stereo not drawn) [Example A111, (7-bromoimidazo[1,5-a]pyridin-5-yl)(cyclohexyl)methanol] | 25 | 962 | 63 | – | – | – | – | –
3 | OC(c1c(C2CC2)ccc2cncn12)C1CCCCC1 (stereo not drawn) [Example A129, cyclohexyl(6-cyclopropylimidazo[1,5-a]pyridin-5-yl)methanol] | 30 | 69.5 | 4700 | – | – | – | – | –
4 | OC(CC1CCCCC1)c1c(C2CC2)ccc2cncn12 (stereo not drawn) [Example A139] | 35 | 435 | 2400 | – | – | – | – | –
5 | OC(CC1CCCCC1)c1c(Br)ccc2cncn12 (single isomer, unassigned) [Example A119a] | 14 | 66 | 14000 | – | – | – | – | –
6 | OC(c1cc(C(F)(F)F)cc2cncn12)C1CCCCCC1 (stereo not drawn) [Example A115, cycloheptyl(7-(trifluoromethyl)imidazo[1,5-a]pyridin-5-yl)methanol] | 180 | 3160 | 320 | – | – | – | – | –
7 | CC1CCC(C(O)c2cc(Cl)cc3cncn23)CC1 (stereo not drawn) [Example A104, (7-chloroimidazo[1,5-a]pyridin-5-yl)(4-methylcyclohexyl)methanol] | 29 | 2180 | 270 | – | – | – | – | –
8 | OC(c1c(Cl)ccc2cncn12)C1CCCCC1 (stereo not drawn) [Example A116, (6-chloroimidazo[1,5-a]pyridin-5-yl)(cyclohexyl)methanol] | 7.5 | 231 | 270 | – | – | – | – | –
9 | O[C@H](c1cc(Cl)cc2cncn12)C1CCCCC1 [Example A101a, (S)-(7-chloroimidazo[1,5-a]pyridin-5-yl)(cyclohexyl)methanol] | 9.6 | 326 | 29 | – | – | – | – | –
10 | OC(c1cc(C(F)(F)F)cc2cncn12)C1CCCCC1 (stereo not drawn) [Example A109, cyclohexyl(7-(trifluoromethyl)imidazo[1,5-a]pyridin-5-yl)methanol] | 49 | 1540 | 110 | – | – | – | – | –
11 | OC(c1c(C2CC2)ccc2cncn12)C1CCCCC1 (single isomer, unassigned) [Example A126a] | 36 | 156 | 14000 | – | – | – | – | –
12 | OC(c1cc(C2CC2)cc2cncn12)C1CCCCC1 (stereo not drawn) [Example A108, cyclohexyl(7-cyclopropylimidazo[1,5-a]pyridin-5-yl)methanol 2,2,2-trifluoroacetate] | 36 | 4440 | 150 | – | – | – | – | –
13 | C=C(C)c1ccc2cncn2c1C(O)C1CCCCC1 (stereo not drawn) [Example A136, cyclohexyl(6-(prop-1en-2-yl)imidazo[1,5-a]pyridin-5-yl)methanol] | 30 | 1610 | 3300 | – | – | – | – | –
14 | OC(CC1CCCCC1)c1c(Cl)c(Cl)cc2cncn12 (single isomer, unassigned) [Example A144b] | 14 | 291 | 240 | – | – | – | – | –
15 | OC(c1c(I)ccc2cncn12)C1CCCCC1 (stereo not drawn) [Example A125, cyclohexyl(6-iodoimidazo[1,5-a]pyridin-5-yl)methanol] | 31 | 205 | 5600 | – | – | – | – | –
16 | OC(CC1CCCCC1)c1cc(Cl)cc2cncn12 (stereo not drawn) [Example A102, 1-(7-chloroimidazo[1,5-a]pyridin-5-yl)-2-cyclohexylethan-1-ol] | 67 | 1760 | 300 | – | – | – | – | –
17 | OC(CC1CCCCC1)c1c(Cl)c(Cl)cc2cncn12 (single isomer, unassigned) [Example A144a] | > 100000 | > 10000 | 23000 | – | – | – | – | –
18 | OC(CC1CCCCC1)c1c(Br)ccc2cncn12 (stereo not drawn) [Example A119, 1-(6-bromoimidazo[1,5-a]pyridin-5-yl)-2-cyclohexylethan-1-ol] | – | 511 | – | 22 | 12000 | – | – | –
19 | OC(c1cc(Cl)c(Cl)c2cncn12)C1CCCCC1 (stereo not drawn) [Example A146, cyclohexyl(7,8-dichloroimidazo[1,5-a]pyridin-5-yl)methanol] | 28 | 1250 | 210 | – | – | – | – | –
20 | OC(c1c(C(F)(F)F)ccc2cncn12)C1CCCCC1 (stereo not drawn) [Example A126, cyclohexyl(6-(trifluoromethyl)imidazo[1,5-a]pyridine-5-yl)methanol] | 65 | 291 | 3100 | – | – | – | – | –

Row | SMILES | IC50 (Recombinant IDO1; [2]) [nM] | EC50 [1, 3] [nM] | IC50 (Recombinant TDO; [4]) [nM] | IC50 (Recombinant IDO1; selectivity examples, read-out: enzymatic IC50 value to IDO1) [nM] | IC50 (Recombinant TDO; selectivity examples, read-out: enzymatic IC50 value to TDO) [nM] | IC50 (Recombinant IDO1; [5]) [nM] | EC50 [1, 6] [nM] | IC50 (Recombinant TDO; [7]) [nM]
21 | OC(c1c(Cl)c(Cl)cc2cncn12)C1CCCCC1 (single isomer, unassigned) [Example A143b] | 3400 | 6100 | 14000 | – | – | – | – | –
22 | OC(c1c(C2CC2)ccn2cncc12)C1CCCC1 (stereo not drawn) [Example B109] | – | – | – | – | – | 35 | 940 | 4600
23 | Cc1cc(C(O)CC2CCCCC2)c2cncn2c1 (stereo not drawn) [Example B012, 2-Cyclohexyl-1-(6-methylimidazo[1,5-a]pyridin-8-yl)ethanol] | – | – | – | – | – | 130 | > 10000 | 130
24 | OC(c1cc(Br)cc2cncn12)C1CCCC1 (stereo not drawn) [Example A112, (7-bromoimidazo[1,5-a]pyridin-5-yl)(cyclopentyl)methanol] | 24 | 1040 | 48 | – | – | – | – | –
25 | OC(c1cc(C(F)(F)F)cc2cncn12)C1CCCCC1 (single isomer, unassigned) [Example A109b] | 1400 | > 10000 | 1200 | – | – | – | – | –
26 | OC(CC1CCCCC1)c1c(C(F)(F)F)ccc2cncn12 (single isomer, unassigned) [Example A127b] | 3200 | 8010 | 25000 | – | – | – | – | –
27 | OC(CCC1CCCCC1)c1c(Cl)ccc2cncn12 (stereo not drawn) [Example A128, 1-(6-chloroimidazo[1,5-a]pyridin-5-yl)-3-cyclohexylpropan-1-ol] | 46 | 2160 | 1100 | – | – | – | – | –
28 | OC(c1c(Br)ccc2cncn12)C1CCCC1 (stereo not drawn) [Example A120, (6-bromoimidazo[1,5-a]pyridin-5-yl)(cyclopentyl)methanol] | 37 | 1410 | 3700 | – | – | – | – | –
29 | Cc1ccn2cncc2c1C(O)C1CCCCC1 (single isomer, unassigned) [Example B102b] | – | – | – | – | – | 3100 | > 10000 | 31000
30 | OC(c1c(-c2ccccc2)ccc2cncn12)C1CCCCC1 (stereo not drawn) [Example A130, cyclohexyl(6-phenylimidazo[1,5-a]pyridin-5-yl)methanol] | 850 | 9150 | 1700 | – | – | – | – | –
31 | OC(c1c(C2CC2)ccn2cncc12)C1CCCCC1 (stereo not drawn) [Example B107, Cyclohexyl (7-cyclopropylimidazo[1,5-a]pyridin-8-yl)methanol] | – | – | – | – | – | 48 | 256 | 850
32 | OC(c1c(Br)ccc2cncn12)C1CCCCC1 (stereo not drawn) [Example A118, (6-bromoimidazo[1,5-a]pyridin-5-yl)(cyclohexyl)methanol] | 15 | 420 | 5700 | – | – | – | – | –
33 | OC(c1ccc(F)c2cncn12)C1CCCCC1 (stereo not drawn) [Example A022, cyclohexyl(8-fluoroimidazo[1,5-a]pyridin-5-yl)methanol] | 1200 | > 10000 | 570 | – | – | – | – | –
34 | OC(CC1CCCCC1)c1cc(Cl)cn2cncc12 (stereo not drawn) [Example B013, 1-(6-Chloroimidazo[1,5-a]pyridin-8-yl)-2-cyclohexylethan-1-ol] | – | – | – | – | – | 240 | > 10000 | 190
35 | OC(c1c(Cl)c(F)cc2cncn12)C1CCCCC1 (stereo not drawn) [Example A151, (6-chloro-7-fluoroimidazo[1,5-a]pyridin-5-yl)(cyclohexyl)methanol] | 39 | 415 | 600 | – | – | – | – | –
36 | OC(c1c(Cl)ccc2cncn12)C1CCCCC1 (single isomer, unassigned) [Example A116a] | 11 | 270 | 610 | – | – | – | – | –
37 | Cc1ccn2cncc2c1C(O)C1CCCCC1 (single isomer, unassigned) [Example B102a] | – | – | – | – | – | 15 | 995 | 150
38 | CC(C)c1ccn2cncc2c1C(O)C1CCCCC1 (stereo not drawn) [Example B106, Cyclohexyl (7-isopropylimidazo[1,5-a]pyridin-8-yl)methanol] | – | – | – | – | – | 138 | 457 | 1200
39 | Clc1cc(CC2CCCCC2)n2cncc2c1 [Example A026, 7-chloro-5-(cyclohexylmethyl)imidazo[1,5-a]pyridine] | 107 | > 10000 | 73 | – | – | – | – | –
